Data on 3 compounds can be found in patent publication US10155021B2, “Antimicrobial 4-oxoquinolizines” (Emergent Product Development Gaithersburg Inc., priority 2011, dated 2018).

The subject of experiment [1] is GN10 Pseudomonas aeruginosa. In words: Pre-chequerboard MIC, broth microdilution (Example 6). It counts as cell-based. The settings on record: ATCC 27853 / GN10, ATCC 27853, antibiotic susceptible. From the text: (§1) A chequerboard technique was used to identify possible synergistic or antagonistic interactions between the 4-oxoquinolizines compounds, levofloxacin and polymyxin B. Levofloxacin was included as a control. […] Final dilutions were made in Mueller-Hinton broth, the specific test medium used for MIC determinations according to CLSI guidelines (CLSI. Methods for Dilution Antimicrobial Susceptibility Tests for Bacteria That Grow Aerobically; Approved Standard-Eighth Edition (2009). CLSI Document M07-A8. CLSI, Wayne, Pa. 19087-1898, USA.). The test medium used was a cation-adjusted Mueller-Hinton Broth II (Becton Dickinson UK Ltd., Oxford Science Park, Oxford, UK, OX4 4DQ).
(§2) The compounds 2, 33 and 35, as well as levofloxacin were tested in combination with polymyxin B on the following isolates: GN31 Acinetobacter baumannii—antibiotic susceptible clinical isolate, GN52 Acinetobacter baumannii—levofloxacin resistant clinical isolate, GN56 Acinetobacter baumannii—levofloxacin resistant clinical isolate, GN48 Klebsiella pneumoniae—NCTC 13443—NDM-1-metallo-R-lactamase and GN10 Pseudomonas aeruginosa—ATCC 27853—antibiotic susceptible reference isolate. All isolates are from the collection maintained at Quotient Bioresearch Ltd., Cambridge, UK.
(§3) The MIC values for the compounds and polymyxin B and levofloxacin were determined by broth microdilution following CLSI guidelines, and the MICs of agents in combination were determined as described by Pillai et.al (Pillai S K, Moellering R C Jr, Eliopoulis G M; Antimicrobial Combinations in Antibiotics in Laboratory Medicine 5th Edition (V. Lorian Ed) (2005) p 365-440). Initial MIC results were used to determine the microtiter plate patterns for the chequerboards. A suitable doubling dilution concentration range was selected such that the combination antibiotic range was at least two concentrations above and four concentrations below the MIC for each isolate. A fixed range of 0.008 to 8 mg/L was tested for polymyxin B except in the case of A. baumannii GN31 where a range of 0.004 to 4 mg/L was tested when in combination with the compounds 2, 33 and 35 as well as levofloxacin.

The test system of experiment [2] is GN31 Acinetobacter baumannii. The description is as above. Format: cell-based. The settings on record: antibiotic susceptible clinical isolate.
Excerpt: as §1, §2, §3

Experiment [3] has as its system GN48 Klebsiella pneumoniae. Described as above. Format: cell-based. The settings on record: GN48 / NCTC 13443, NCTC 13443, NDM-1.
Excerpt: as §1, §2, §3

Experiment [4] relates to GN52 Acinetobacter baumannii. Described as above. Format: cell-based. The settings on record: levofloxacin resistant clinical isolate.
Excerpt: as §1, §2, §3

Experiment [5] relates to GN56 Acinetobacter baumannii. The description is as above. It counts as cell-based. The settings on record: levofloxacin resistant clinical isolate.
Excerpt: as §1, §2, §3

The subject of experiment [6] is GN48 Klebsiella pneumoniae. In words: Chequerboard synergy with polymyxin B (FICI). Format: cell-based.
Excerpt: as §1, §2, §3
(§4) From the raw data, fractional inhibitory concentration indices (FICI) were determined for the compounds of the invention and levofloxacin together with polymyxin B for each isolate as follows: FICI=FICX+FICY Where,
(§5) FICX=concentration of the combination antibiotic in a particular row÷MIC of the combination drug alone
(§6) FICY=MIC of polymyxin B in combination÷MIC of the polymyxin B alone
(§7) Additionally isobolograms were created to represent the same data visually. Here, the MIC of polymyxin B was plotted against every concentration of the combination antibiotic up to the MIC.

Another experiment deals with S. aureus 25923. In words: MIC, standard panel of Gram-positive and Gram-negative bacteria (CLSI). It counts as cell-based, Staphylococcus aureus. The settings on record: Staphylococcus aureus, 25923, read-out: MIC S. aureus 25923.
In the next experiment the test system is S. aureus 25923 HS. The description is as above. Format: cell-based. The settings on record: Staphylococcus aureus, read-out: MIC S. aureus 25923 HS.
Another experiment has as its system S. aureus 101. Described as above. The settings on record: Staphylococcus aureus, 101, read-out: MIC S. aureus 101. Format: cell-based, Staphylococcus aureus.
The next experiment has as its system S. epidermis 12228. Described as above. Format: cell-based, Staphylococcus epidermis. The settings on record: Staphylococcus, 12228, read-out: MIC S. epidermis 12228.
The test system of a further experiment is E. faecalis 29212. Described as above. Format: cell-based, Enterococcus faecalis. The settings on record: Enterococcus faecalis, 29212, read-out: MIC E. faecalis 29212.
The test system of the next experiment is E. faecium 19434. Described as above. The settings on record: Enterococcus faecium, 19434, read-out: MIC E. faecium 19434. Format: cell-based, Enterococcus faecium.
For the next experiment, the system named is E. coli 25922. Described as above. The settings on record: Escherichia coli, 25922, read-out: MIC E. coli 25922. It counts as cell-based, Escherichia coli.
The next experiment deals with E. cloacae 13047. The description is as above. It counts as cell-based, Enterobacter cloacae. The settings on record: Enterobacter cloacae, 13047, read-out: MIC E. cloacae 13047.
The subject of a further experiment is P. aeruginosa 27853. The description is as above. The settings on record: Pseudomonas aeruginosa, 27853, read-out: MIC P. aeruginosa 27853. Format: cell-based, Pseudomonas aeruginosa.
In another experiment the test system is A. baumanii 19606. The description is as above. Format: cell-based. The settings on record: Acinetobacter baumannii, 19606, read-out: MIC A. baumanii 19606.
The test system of experiment [7] is GN31 Acinetobacter baumannii. As to the kind of experiment: Chequerboard synergy with polymyxin B (FICI). It counts as cell-based.
Excerpt: as §1, §2, §3, §4, §5, §6, §7

For experiment [8], the system named is GN52 Acinetobacter baumannii. In words: Chequerboard synergy with polymyxin B (FICI). Format: cell-based.
Excerpt: as §1, §2, §3, §4, §5, §6, §7

The subject of experiment [9] is GN56 Acinetobacter baumannii. In words: Chequerboard synergy with polymyxin B (FICI). It counts as cell-based.
Excerpt: as §1, §2, §3, §4, §5, §6, §7

In brackets after ≈: the same amount, converted by molar mass. Several values for one entry are separate records, joined by “and”; a condition that tells them apart may be missing. Identical values can stand only once.

Regarding `Cc1c(-c2ccc3[nH]ncc3c2)ccn2c(=O)c(C(=O)O)cc(C3CC3)c12` [Compound 35, 8-(1H-indazol-5-yl)-1-cyclopropyl-9-methyl-4-oxo-quinolizine-3-carboxylic acid], the MIC in experiment [1] stood at 0.25 mg/L; in experiment [2], 0.03 mg/L; in experiment [3] it was 16 mg/L; in experiment [4] it was 2 mg/L; in experiment [5] it was 8 mg/L. Also, the “Combination drug MIC alone” value in [6] turned out to be 16 mg/L. The Synergy entry in experiment [6] (combination with polymyxin B) is “partial synergy”.

In the case of `CN[C@H](CC(C)C)C(=O)N[C@H]1C(=O)N[C@@H](CC(N)=O)C(=O)N[C@H]2C(=O)N[C@H]3C(=O)N[C@H](C(=O)N[C@H](C(=O)O)c4cc(O)cc(O)c4-c4cc3ccc4O)[C@H](O)c3ccc(c(Cl)c3)Oc3cc2cc(c3O[C@@H]2O[C@H](CO)[C@@H](O)[C@H](O)[C@H]2O[C@H]2C[C@](C)(N)[C@H](O)[C@H](C)O2)Oc2ccc(cc2Cl)[C@H]1O` [Vancomycin, reference compound], the MIC in the experiment on S. aureus 25923 turned out to be 2 mg/L (≈ 1.38 µM); in the experiment with S. aureus 25923 HS, 2 mg/L (≈ 1.38 µM); with S. aureus 101, 2 mg/L (≈ 1.38 µM); with S. epidermis 12228, 2 mg/L (≈ 1.38 µM); in the experiment on E. faecalis 29212, 2 mg/L (≈ 1.38 µM); with E. faecium 19434, 1 mg/L (≈ 0.69 µM). In addition, the MIC with E. coli 25922, with E. cloacae 13047, in the experiment on P. aeruginosa 27853 and in the experiment on A. baumanii 19606 was more than 128 mg/L in each case.

For Polymyxin B, the “Polymyxin B MIC alone” value was 0.25 mg/L and 0.5 mg/L in [7]; 0.5 mg/L in [6]; 0.5 mg/L in [8]; 0.5 mg/L in experiment [9].
